Assay results taken from patent publication US20260152501A1, “CYCLIN MODULATOR” (EUBULUS BIOTHERAPEUTICS (HONG KONG) LIMITED, priority 2022, published 2026).
pIC50: −log10 of the molar value.

Experiments:
Cyclin K = test: Immunohistochemistry (IHC) staining of Cyclin K in HepG2 cells; format: cell-based; conditions: incubated with compound 2 hours, CCNK antibody
Procedure: Appropriate amount of compounds were added to the cultured cells. The cells were incubated in a tissue culture incubator at 37° C. for 2 hours.
After washing the cultured cells twice with PBS, 100 μL 10% neutral buffered formalin were added and the cells were fixed for 20 minutes.
After washing 3 times with PBS, immunohistochemical staining was performed using CCNK antibody and general two-step detection kit (mouse/rabbit enhanced polymer detection system, PV-9000, Zsbio Inc, Beijing).
Specifically, 100 μL of endogenous peroxidase blocker in the kit was added, cells were incubated at room temperature for 10 minutes; rinsed with PBS buffer for 3 minutes×3 times.
100 μL CCNK antibody 1:5000 dilution was added, and the cells were incubated at 37° C. for 60 minutes; rinsed with PBS buffer for 3 minutes×3 times.
100 μL reaction enhancer was added, and the cells were incubated at 37° C. for 20 minutes; rinsed with PBS buffer for 3 minutes×3 times.
100 μL enhanced enzyme-labeled goat anti-mouse/rabbit IgG polymer was added, and the cells were incubated at 37° C. for 20 minutes; rinsed with PBS buffer for 3 minutes×3 times.
The cells were placed in 75% ethanol, soaked for 3 minutes×2 times; placed in 95% ethanol, soaked for 3 minutes×2 times; after removing excess liquid, placed in anhydrous ethanol, soaked for 3 minutes×3 times; after removing excess liquid, air dried, observed under a microscope and taken pictures after sealing.

HepG2 cells = test: Antiproliferative effect on HepG2 cells; format: cell-based; conditions: Homo sapiens
Procedure: Reagents: RPMI-1640 medium, McCoy's 5A medium, IMDM medium, MEM medium, L-15 medium, fetal bovine serum, Penicillin-Streptomycin double antibody, trypsin, etc., 2-mercaptoethanol, NEAA, pyruvate, etc.
The test cells were cultured in conventional ways, and the cells should be passed for at least 2 generations before plating.
All cells were subjected to IC50 test for corresponding samples.
The fluorescence intensity of each well was detected using the Alarm blue method, and EC50 was calculated.
IC50 was calculated according to the following formula:
[formula] • wherein, Min, Max and Slope represent the minimum, maximum and slope respectively.

## CC(C)n1cnc2c(NCc3ccc(-c4ccccc4)cc3)nc(N3CCNC[C@H]3CCO)nc21 [UB-024, (R)-2-(1-(6-(([1,1′-biphenyl]-4-ylmethyl)amino)-9-isopropyl-9H-purin-2-yl)piperazin-2-yl) ethan-1-ol]
Cyclin K
  Cyclin K IHC data of HepG2 cells: A (A <= 31 nM)

## CC(C)n1cnc2c(NCc3ccc(-c4ccccc4)cc3)nc(N3CCNC[C@H]3CO)nc21 [UB-022, (S)-(1-(6-(([1,1′-biphenyl]-4-ylmethyl)amino)-9-isopropyl-9H-purin-2-yl)piperazin-2-yl) methanol]
HepG2 cells
  pIC50: > 7.30
Cyclin K
  Cyclin K IHC data of HepG2 cells: A (A <= 31 nM)

## CC(C)n1cnc2c(NCc3ccc(-c4ccccc4)cc3)nc(N3CCN[C@@H](CCO)C3)nc21 [UB-030, (S)-2-(4-(6-(([1,1′-biphenyl]-4-ylmethyl)amino)-9-isopropyl-9H-purin-2-yl)piperazin-2-yl) ethan-1-ol]
Cyclin K
  Cyclin K IHC data of HepG2 cells: B (31 nM < B <= 93 nM)

## CC(C)n1cnc2c(NCc3ccc(-c4ccccc4OCCO)cc3)nc(N3CCNCC3)nc21 [UB-047, 2-((4′-(((9-isopropyl-2-(piperazin-1-yl)-9H-purin-6-yl)amino)methyl)-[1,1′-biphenyl]-2-yl)oxy)ethan-1-ol]
HepG2 cells
  pIC50: 7.00 to 7.30
Cyclin K
  Cyclin K IHC data of HepG2 cells: D (D > 278 nM)

## CC(C)n1cnc2c(NCc3ccc(-c4ccccc4)cc3)nc(N3CCN[C@@H](CO)C3)nc21 [UB-028, (R)-(4-(6-(([1,1′-biphenyl]-4-ylmethyl)amino)-9-isopropyl-9H-purin-2-yl)piperazin-2-yl) methanol]
Cyclin K
  Cyclin K IHC data of HepG2 cells: A (A <= 31 nM)

## CC(C)n1cnc2c(NCc3ccc(-c4ccccc4)cc3)nc(N3C[C@@H](C)N[C@@H](C)C3)nc21 [UB-060, N-([1,1′-biphenyl]-4-ylmethyl)-2-((3R,5S)-3,5-dimethylpiperazin-1-yl)-9-isopropyl-9H-purin-6-amine]
Cyclin K
  Cyclin K IHC data of HepG2 cells: A (A <= 31 nM)

## CC(C)n1cnc2c(NCc3ccc(-c4ccccc4)cc3)nc(N3CCN[C@H](CCO)C3)nc21 [UB-031, (R)-2-(4-(6-(([1,1′-biphenyl]-4-ylmethyl)amino)-9-isopropyl-9H-purin-2-yl)piperazin-2-yl) ethan-1-ol]
Cyclin K
  Cyclin K IHC data of HepG2 cells: B (31 nM < B <= 93 nM)

## CC(C)n1cnc2c(NCc3ccc(-c4ccccc4)cc3)nc(N3CCN[C@H](CO)C3)nc21 [UB-029, (S)-(4-(6-(([1,1′-biphenyl]-4-ylmethyl)amino)-9-isopropyl-9H-purin-2-yl)piperazin-2-yl) methanol]
Cyclin K
  Cyclin K IHC data of HepG2 cells: B (31 nM < B <= 93 nM)

## CC(C)n1cnc2c(NCc3ccc(-c4ccccc4)cc3)nc(N3CCNC[C@@H]3CCO)nc21 [UB-025, (S)-2-(1-(6-(([1,1′-biphenyl]-4-ylmethyl)amino)-9-isopropyl-9H-purin-2-yl)piperazin-2-yl) ethan-1-ol]
Cyclin K
  Cyclin K IHC data of HepG2 cells: A (A <= 31 nM)

## CC(C)n1cnc2c(NCc3ccc(-c4ccccc4)cc3)nc(N3CCNC4(CC4)C3)nc21 [UB-059, N-([1,1′-biphenyl]-4-ylmethyl)-9-isopropyl-2-(4,7-diazaspiro[2.5]octan-7-yl)-9H-purin-6-amine]
Cyclin K
  Cyclin K IHC data of HepG2 cells: B (31 nM < B <= 93 nM)

## Fc1cccc(-n2cnc3c(NCc4ccc(-c5ccccc5)cc4)nc(N4CCNCC4)nc32)c1 [UB-054, N-([1,1′-biphenyl]-4-ylmethyl)-9-(3-fluorophenyl)-2-(piperazin-1-yl)-9H-purin-6-amine]
Cyclin K
  Cyclin K IHC data of HepG2 cells: D (D > 278 nM)

## CC(C)n1cnc2c(NCc3ccc(-c4ccccc4)cc3)nc(N3C[C@@H](C)N[C@H](C)C3)nc21 [UB-032, N-([1,1′-biphenyl]-4-ylmethyl)-2-((3R,5R)-3,5-dimethylpiperazin-1-yl)-9-isopropyl-9H-purin-6-amine]
Cyclin K
  Cyclin K IHC data of HepG2 cells: D (D > 278 nM)

## CC(C)n1cnc2c(NCc3ccc(-c4ccccc4)cc3)nc(NC3CCNCC3)nc21 [UB-016, N6-([1,1′-biphenyl]-4-yl-methyl)-9-isopropyl-N2-(Piperidin-4-yl)-9H-purin-2,6-diamine]
Cyclin K
  Cyclin K IHC data of HepG2 cells: C (93 nM < C <= 278 nM)
